Reference: the supplement of paper PMC11451515

System: SEM cells
Assay: cell viability relative to DMSO control; higher = less cytotoxic
Details: 48 h
Summary of the method: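 Cells were incubated for 48 h at 37°C before CellTiter-Glo One luminescence was read. The cells were NOMO1 or SEM (500 cells/well) or P12-Ichikawa (1000 cells/well) leukemia cells, adapted for at least four passages in each medium and seeded in 1536-well plates (5 μl). Dosing used library compounds in DMSO applied by pin over 11 threefold points, 47 μM to 0.79 nM. Viability is the per-plate percentage of DMSO wells, with cell-free wells as background.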

[1] = HPLM + 10% dialyzed FBS, 0.000781 µM
[2] = HPLM + 10% dialyzed FBS, 0.00234 µM
[3] = HPLM + 10% dialyzed FBS, 0.00702 µM
[4] = HPLM + 10% dialyzed FBS, 0.0211 µM
[5] = HPLM + 10% dialyzed FBS, 0.0632 µM
[6] = HPLM + 10% dialyzed FBS, 0.19 µM
[7] = HPLM + 10% dialyzed FBS, 0.569 µM
[8] = HPLM + 10% dialyzed FBS, 1.71 µM
[9] = HPLM + 10% dialyzed FBS, 5.12 µM
[10] = HPLM + 10% dialyzed FBS, 15.4 µM
[11] = HPLM + 10% dialyzed FBS, 46.1 µM
[12] = RPMI 5 mM glucose + 10% FBS, 0.000781 µM
[13] = RPMI 5 mM glucose + 10% FBS, 0.00234 µM
[14] = RPMI 5 mM glucose + 10% FBS, 0.00702 µM
[15] = RPMI 5 mM glucose + 10% FBS, 0.0211 µM
[16] = RPMI 5 mM glucose + 10% FBS, 0.0632 µM
[17] = RPMI 5 mM glucose + 10% FBS, 0.19 µM
[18] = RPMI 5 mM glucose + 10% FBS, 0.569 µM
[19] = RPMI 5 mM glucose + 10% FBS, 1.71 µM
[20] = RPMI 5 mM glucose + 10% FBS, 5.12 µM
[21] = RPMI 5 mM glucose + 10% FBS, 15.4 µM
[22] = RPMI 5 mM glucose + 10% FBS, 46.1 µM
[23] = RPMI 5 mM glucose + 10% dialyzed FBS, 0.000781 µM
[24] = RPMI 5 mM glucose + 10% dialyzed FBS, 0.00234 µM
[25] = RPMI 5 mM glucose + 10% dialyzed FBS, 0.00702 µM
[26] = RPMI 5 mM glucose + 10% dialyzed FBS, 0.0211 µM
[27] = RPMI 5 mM glucose + 10% dialyzed FBS, 0.0632 µM
[28] = RPMI 5 mM glucose + 10% dialyzed FBS, 0.19 µM
[29] = RPMI 5 mM glucose + 10% dialyzed FBS, 0.569 µM
[30] = RPMI 5 mM glucose + 10% dialyzed FBS, 1.71 µM
[31] = RPMI 5 mM glucose + 10% dialyzed FBS, 5.12 µM
[32] = RPMI 5 mM glucose + 10% dialyzed FBS, 15.4 µM
[33] = RPMI 5 mM glucose + 10% dialyzed FBS, 46.1 µM

Compound	cell viability [1] [%]	cell viability [2] [%]	cell viability [3] [%]	cell viability [4] [%]	cell viability [5] [%]	cell viability [6] [%]	cell viability [7] [%]	cell viability [8] [%]	cell viability [9] [%]	cell viability [10] [%]	cell viability [11] [%]	cell viability [12] [%]	cell viability [13] [%]	cell viability [14] [%]	cell viability [15] [%]	cell viability [16] [%]	cell viability [17] [%]	cell viability [18] [%]	cell viability [19] [%]	cell viability [20] [%]	cell viability [21] [%]	cell viability [22] [%]	cell viability [23] [%]	cell viability [24] [%]	cell viability [25] [%]	cell viability [26] [%]	cell viability [27] [%]	cell viability [28] [%]	cell viability [29] [%]	cell viability [30] [%]	cell viability [31] [%]	cell viability [32] [%]	cell viability [33] [%]
Cn1c(=O)c2c(ncn2C)n(C)c1=O.O=C(O)CC(O)(CC(=O)O)C(=O)O	124	117	110	111	112	128	118	114	122	121	106	117	107	112	107	117	106	115	96.1	103	110	89.7	113	114	120	123	112	124	115	114	117	124	112
C#Cc1cccc(Nc2ncnc3cc(OCCOC)c(OCCOC)cc23)c1	93.5	95.7	90.4	95.2	102	104	92.9	94.7	71.5	83	32.9	119	133	120	128	114	119	97.1	115	77.9	107	27.4	86.8	104	90.5	99.2	90.2	93.6	87.5	77.9	59.7	68.6	19.9
CCCc1nc(C(C)(C)O)c(C(=O)O)n1Cc1ccc(-c2ccccc2-c2nn[nH]n2)cc1	104	116	97.3	112	119	116	58.6	60	118	120	110	76.4	88.1	69.3	76.7	84.5	76.5	69	46.8	79.2	82.6	62.3	96	104	109	98.5	104	109	90.3	56	103	105	103
CC1CCC(C(=O)N(c2cc(C#CC(C)(C)C)sc2C(=O)O)C2CCC(O)CC2)CC1 (stereo not given)	106	109	99.2	103	98	93.3	89.1	96	77.3	48.9	44.2	130	119	118	129	116	115	110	123	97.4	61.1	49.8	91.7	106	90.3	87.9	90.3	90.3	96.6	88.3	77.6	44.7	41.8
c1cncc(CN2CCC(n3ncc4c(N5CCOCC5)nc(-c5ccc6[nH]ccc6c5)nc43)CC2)c1	93.8	88.8	98.3	90	101	81	66.6	69.2	73.4	58.9	33.1	123	117	111	103	105	95.4	68.2	93	80.3	37.1	11.6	87.1	88.4	94.7	87.2	87.3	96.4	61.9	76.2	66.5	32.6	8.23
CC[C@H](CC[C@@H](C)[C@H]1CC[C@H]2[C@@H]3C\C=C/4C[C@@H](O)CC[C@]4(C)[C@H]3CC[C@]12C)C(C)C	119	130	123	139	129	128	114	116	116	122	95.8	117	114	126	119	131	116	124	110	115	114	92.3	124	144	122	115	147	126	125	129	138	121	94.6
O=C([O-])C(O)Cc1ccc(O)c(O)c1 (stereo not given)	93.4	111	93.6	95.6	96	81.2	79.2	76.4	71.2	74.2	55	102	111	105	96.8	107	96.3	87.3	76.2	88.5	75.7	53.4	93.7	109	101	96	79.8	96.3	69	76.8	60.4	74.5	50.4
[NH2][Pt]1([NH2])[O]CC(=O)[O]1	78.3	95.6	96.2	92.2	91.2	102	94.4	97	108	96.7	89.7	104	100	110	96.4	108	109	95.5	101	103	88.3	96.3	75.6	84.2	85.7	83.6	88.1	87.7	76.9	94.9	79	91.5	92.3
Cc1ccccc1C(C(=O)NC1CCCCC1)N(C(=O)Cn1ccnc1C)c1cccc(F)c1 (stereo not given)	109	31	118	111	109	130	127	124	114	100	92.7	112	108	96.9	103	98.4	114	112	121	110	84.1	88.9	84.5	27.9	100	105	102	88.5	110	95.2	97.4	93.6	90.6
COc1c(C)cnc(Cn2cnc3c(Cl)nc(N)nc32)c1C	94.1	106	103	112	102	76.9	52.8	28.3	15.9	22.3	17.6	108	125	99.6	115	100	77.3	50	25.5	16.1	22.9	17.3	115	104	106	116	124	78.6	52.9	33.1	15.8	25	22.1
CC(=O)Nc1ccc(OC[C@](C)(O)C(=O)Nc2ccc([N+](=O)[O-])c(C(F)(F)F)c2)cc1	67.5	59.4	69	75.9	68.9	72.8	77.1	84	83.4	82.3	54.8	81.6	78.3	77.8	103	80.8	80.2	88.8	90.4	81.8	93.7	44.7	79.9	79	84.8	108	86.7	97.5	88.7	93.8	71	91.7	48
Nc1ccccc1NC(=O)c1ccc(CNC(=O)OCc2cccnc2)cc1	109	120	120	111	118	119	87.2	21.2	8.14	7.22	5.16	109	117	136	125	132	120	89.3	12.2	7.97	6.97	4.6	94.3	105	99.8	114	124	104	76.3	13	8.44	7.8	5.76
CCC(C)SSc1ncc[nH]1 (stereo not given)	87.4	90.2	107	101	91	97.5	89	36.2	81.9	57.8	7.14	93.9	91.5	88.7	102	92.7	109	93.8	17.7	82.9	29.9	6.98	85.7	75.8	83.2	83.9	89.8	108	78.8	27.2	73.6	10.3	6.57
Cl.Cl.Cl.O[C@@H](COc1cccc2ncccc12)CN1CCN([C@@H]2c3ccccc3[C@@H]3[C@H](c4ccccc42)C3(F)F)CC1	88.2	103	82.3	83.8	105	90	84.5	89.6	91.9	71.2	73.4	89.3	100	75.7	95.7	98.6	82.6	86.2	94.5	100	97.3	3.4	94.1	92.1	85.7	93.9	101	102	86.9	106	85.3	105	83.5
CC1(C)O[C@@H]2C[C@H]3[C@@H]4CCC5=CC(=O)C=C[C@]5(C)[C@@]4(F)[C@@H](O)C[C@]3(C)[C@]2(C(=O)CO)O1	74.9	83.6	109	50.6	91.2	83.5	6.87	30.7	14.9	14.2	26.3	76.9	97	103	61.7	78.3	79.3	7.13	22.6	45.9	17.7	30.4	73.1	82.4	109	96.4	101	75.7	7.45	20.3	47.6	11.4	19.8
